The experiment deals with Walker 256 L-Pam tumor cell. Briefly: Walker 256 L-Pam tumor cell attachment to plastic. It counts as cell-based, rat. The conditions noted are these: 0.04 mg/ml; for effect on tumor cell adhesion to plastic wells (in words): thirty minutes preincubation; for inhibition at 40 µg/mL: Rattus norvegicus, Walker 256, 1 h, 1 h plating, read-out: % Inhibition vs control (attachment to plastic). Here is the method:
Walker ^256 L-Pam tumor cells were plated at approximately 5×10^5 cells/flask. The cells were labelled with ^125 I-UDR (iodinated uridine deoxyribonucleic acid) at 0.5 microcuries/ml media (5.0 microcurie/flask). Cells were incubated for approximately 24 hours and the cell count/flask was determined to be 8.14×10^5 cell/flask. The cells from each flask were counted (gamma counter) and found to have an average of 0.24 cpm/cell.
Platelet enhanced tumor cell attachment to plastic was tested using four conditions: tumor cell alone (Condition A), tumor cells plus washed platelets (Condition B), tumor cells plus platelet poor plasma (Condition C) and tumor cells, washed platelets and platelet poor plasma (Condition D).
Walker 256 L-Pam tumor cells obtained from culture are radiolabeled with ^125 I-UDR as described previously. The radiolabeled cells are removed from T-75 flasks with trypsin (2 milliliters of 0.25% trypsin and 0.01% EDTA) in MEM. After two minutes, the flasks are washed 3X with trypsin "quench," 10% fetal calf serum in MEM, to quench and remove the trypsin in order to prevent cell lysis. The tumor cells are removed from the flasks in MEM and adjusted to 2.5×10^5 cells /milliliter. One hundred microliters of the tumor cell suspension (2.5×10^4 cells) were plated in […] tissue culture wells (Costar) and overlaid with 250 microliters of Wash Solution #2 (see Platelet Prep). The cells were incubated at room temperature (approximately 22° C.) for 5 minutes. Following this incubation 10 microliters of 7.35 mg/ml CaCl2 were added to the culture wells, 10 microliters of platelet poor plasma (diluted 1:32 with platelet Wash Solution #2) were added to culture wells for Conditions C and D and 250 microliters of washed platelets (3×10^8 /ml final concentration) were added to culture wells for Conditions B and D. Where appropriate, Wash Solution #2 was added to wells (Conditions A and C) so that all wells had the same final volume of solutions. The wells were incubated for one hour at 37° C. After the one hour incubation, the media containing any unattached tumor cells were removed by aspiration and then the wells were washed 2X with 1 ml of sodium phosphate buffer (PBS). The adhering cells were removed by trypsinization (as described above) and counts per wells determined using a gamma counter. Results were determined as total cpm plated per well.
The effect of BAY e 9736 on Walker 256 L-Pam tumor cell adhesion to plastic wells […] was determined by pretreating monodispersed Walker 256 L-Pam tumor cells with BAY e 9736 dissolved in DMSO prior to plating the cells. Except for the pretreatment, plastic adhesion studies were performed as previously described in the literature. A 8 mg sample of BAY e 9736 was dissolved in 1 ml of DMSO. Five microliters of the 8 mg/ml BAY e 9736 was added to each 1 ml of tumor cells.

The text below walks through data of patent US4690935A, “Inhibition of tumor growth and metastasis with calcium channel blocker compounds” (Wayne State University, priority 1983, dated 1987).

Entries after “also recorded” stand apart in the source; their conditions may differ. Where two headings read alike, the source gives them in different places.

Usually inhibition stands for the relative decrease from the control value, in per cent. Turning to `COCCOC(=O)C1=C(C)NC(C)=C(C(=O)OC(C)C)C1c1cccc([N+](=O)[O-])c1` (stereo not drawn) [BAY e 9736, 1,4-dihydro-2,6-dimethyl-4-(3' nitrophenyl)-pyridine-3-(beta-methyoxyethylester)-5-(isopropyl ester)], the “effect on tumor cell adhesion to plastic wells (in words)” value is reported as “decreased the percent of cells adhering to the plastic wells; also recorded: significant in all groups tested”. Further, the “effect on tumor cell adhesion to plastic wells (in words)” value (listed as nimodipine) was “decreases or inhibits the adhesion of tumor cells to plastic incubation wells”. Besides, for the setting “A = tumor cells alone”, the inhibition at 40 µg/mL was found to be 72%. In addition, the inhibition at 40 µg/mL (B = tumor cells + platelets) amounted to 50 ± 8.2%. Also, the inhibition at 40 µg/mL (C = tumor cells + PPP) was found to be 44 ± 9.2%. In addition, for the setting “D = tumor cells + PPP + platelets”, the inhibition at 40 µg/mL was found to be 40 ± 7.5%.
